Data on 3 compounds can be found in ChEMBL document CHEMBL2146428, “Luminmycins A-C, cryptic natural products from Photorhabdus luminescens identified by heterologous expression in Escherichia coli” (J Nat Prod, 2012).

The test system of assay [1] is HCT-116. As to the kind of experiment: Cytotoxicity against human HCT116 cells assessed as cell viability at 100 ug/mL after 5 days by MTT assay relative to control. The format is functional, cell-based. (Formazan colour is commonly taken as a measure of viable cells.)
Another assay relates to Candida albicans. As to the kind of experiment: Antifungal activity against Candida albicans after 16 hrs by serial dilution method. The format is functional.
Assay [2] relates to HCT-116. The experiment in a line: Cytotoxicity against human HCT116 cells assessed as cell viability after 5 days by MTT assay relative to control. The following applies: HCT-116, 120 h. It counts as functional, cell-based.

Converted amounts (≈) assume the structure as drawn. The source made the active and inactive calls. The rule behind the calls is not given here.

On to `CCCCCCC/C=C/C=C/C(=O)N[C@H](C(=O)N[C@@H](CCCCN)C(=O)N[C@@H](C)C(O)CC(=O)O)[C@@H](C)O` (stereo partly specified), for which the outcome in the assay on HCT-116 [1] and in the assay with Candida albicans was inactive.
With `CCCCCCC/C=C/C=C/C(=O)N[C@H](C(=O)N[C@H]1C[C@@H](O)CCNC(=O)/C=C/[C@H](C)NC1=O)[C@@H](C)O` [GLIDOBACTIN A], the IC50 – broadly, the concentration needed to halve the response being measured – in the assay with HCT-116 [2] stood at 33.3 nM. For the same compound, the MIC (in general, the lowest concentration found to suppress growth) in the assay with Candida albicans amounted to 2 µg/mL (≈ 3.84 µM).
As to `CCCCCCC/C=C/C=C/C(=O)N[C@H](C(=O)N[C@H]1CCCCNC(=O)/C=C/[C@H](C)NC1=O)[C@@H](C)O` [LUMINMYCIN A], the IC50 with HCT-116 [2] came to 91.8 nM. Further, the outcome with Candida albicans was inactive.
